These results are taken from patent US11352350B2, “IRAK degraders and uses thereof” (Kymera Therapeutics, Inc., priority 2018, dated 2022).

Read-outs that look alike come from different tables or passages of the source. A value given as a limit tells only on which side of the number the result lay.

As usually defined, the IC50 is the midpoint of a concentration-inhibition curve. A word on the DC50: it is the concentration giving 50% degradation.

In assay [1] the test system is OCI-LY10. Put plainly: CTG Cell Viability Assay - OCI-LY10. The format is cell-based, human. The settings on record: OCI-LY10, 4 days, read-out: CTG Cell Viability Assay - OCI-LY10: Average external-IC50. The gist of the method: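 Viability read by CellTiter-Glo luminescence after 4 days at 37° C under 5% CO2 with compound (top 10 μM final, 1:3 steps, 9 doses, DMSO 0.2%). Three-parameter logistic fit gave IC50.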

A further assay deals with SU-DHL2. Put plainly: SU-DHL2 viability, CTG. The assay is classed as cell-based.
Assay [2] deals with T1, IRAK4 (Homo sapiens (Human), UniProt Q9NWZ3). Put plainly: IRAK4 WB degradation (DC50). The assay is classed as cell-based.
T1 sequence (Q9NWZ3 whole entry): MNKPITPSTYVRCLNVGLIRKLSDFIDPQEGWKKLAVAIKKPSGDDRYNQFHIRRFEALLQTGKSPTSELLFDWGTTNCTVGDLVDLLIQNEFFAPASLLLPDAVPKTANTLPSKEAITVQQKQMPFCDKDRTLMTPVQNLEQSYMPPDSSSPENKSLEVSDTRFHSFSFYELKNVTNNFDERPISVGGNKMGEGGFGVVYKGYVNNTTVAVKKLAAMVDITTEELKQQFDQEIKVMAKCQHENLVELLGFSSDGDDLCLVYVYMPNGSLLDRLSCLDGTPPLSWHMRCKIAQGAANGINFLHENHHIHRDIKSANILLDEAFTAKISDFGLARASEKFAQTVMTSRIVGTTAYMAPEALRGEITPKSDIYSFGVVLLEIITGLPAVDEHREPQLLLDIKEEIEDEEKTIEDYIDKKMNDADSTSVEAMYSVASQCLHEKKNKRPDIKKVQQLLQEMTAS
Assay [3] concerns the target T1, IRAK4. Put plainly: hPBMC IRAK4 degradation flow assay. The format is cell-based. As to conditions: hPBMC monocyte, 20 hr, flow assay; read-out: IRAK4 degradation in hPBMC monocyte at 20 hr: Average external Abs DC50. The gist of the method: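 Thawed human PBMCs treated with 10-point, 5-fold compound dilutions (0.1% DMSO) at 37° C. for 20 hours or 4 hours. IRAK4 measured by flow MFI in CD14+ monocytes and CD14− lymphocytes, normalized to DMSO and 10 μM 20-hour control; DC50 and max degradation from 4-parameter logistic fit.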

Assay [4] has as its target T1, IRAK4. Put plainly: IRAK4 degradation in OCI-LY10 (DC50). The format is cell-based.
The subject of a further assay is U2932. Put plainly: U2932 viability, CTG. The assay is classed as cell-based.
The subject of another assay is OCI-LY19. Put plainly: OCI-LY19 viability, CTG. The format is cell-based.
The subject of a further assay is OCI-LY10 tumor xenograft. Put plainly: OCI-LY10 tumor xenograft, tumor volume. The assay is classed as in vivo. As to conditions: PO, BID, 150 mg/kg (FIG. 18).
The target in assay [5] is T1, IRAK4. Put plainly: IRAK4 degradation in OCI-LY10 tumor xenograft. The format is in vivo. As to conditions: PO, BID (FIG. 18).
In the next assay the test system is IL-6. Put plainly: IL-6 secretion in hPBMC using R848 stimulation. The assay is classed as cell-based, human. The settings on record: hPBMC, R848 as stim, t = 20 h.
For assay [6], the system named is OCI-LY10. Put plainly: OCI-LY10 viability, CTG. The format is cell-based.
The target of assay [7] is T1, IRAK4. Put plainly: IRAK4 MSD degradation in OCI-LY10. The format is cell-based. The settings on record: MSD. A digest of the protocol: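 Remaining IRAK4 quantified by electrochemiluminescent MSD sandwich assay with two anti-IRAK4 antibodies. Compounds were dosed as 8 concentrations in 1:3 steps from a 1 to 10 μM final top on OCI-LY10 cells, incubated 4 to 24 h at 37° C. under 5% CO2. DC50 fitted with a three-parameter logistic curve.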

The test system of the next assay is SU-DHL6. Put plainly: SU-DHL6 viability, CTG. The assay is classed as cell-based.
Another assay deals with OCI-LY3. Put plainly: OCI-LY3 viability, CTG. As to conditions: Homo sapiens, MYD88 MUT. The assay is classed as cell-based.
The next assay concerns the target IKAROS (Homo sapiens (Human), UniProt Q13422+Q96SW2). Put plainly: IKAROS degradation in OCI-LY10 (DC50). The format is cell-based.
Another assay deals with AIOLOS (Homo sapiens (Human), UniProt Q96SW2+Q9UKT9). Put plainly: AIOLOS degradation in OCI-LY10 (DC50). The format is cell-based.
Chain of AIOLOS (Q9UKT9 whole entry): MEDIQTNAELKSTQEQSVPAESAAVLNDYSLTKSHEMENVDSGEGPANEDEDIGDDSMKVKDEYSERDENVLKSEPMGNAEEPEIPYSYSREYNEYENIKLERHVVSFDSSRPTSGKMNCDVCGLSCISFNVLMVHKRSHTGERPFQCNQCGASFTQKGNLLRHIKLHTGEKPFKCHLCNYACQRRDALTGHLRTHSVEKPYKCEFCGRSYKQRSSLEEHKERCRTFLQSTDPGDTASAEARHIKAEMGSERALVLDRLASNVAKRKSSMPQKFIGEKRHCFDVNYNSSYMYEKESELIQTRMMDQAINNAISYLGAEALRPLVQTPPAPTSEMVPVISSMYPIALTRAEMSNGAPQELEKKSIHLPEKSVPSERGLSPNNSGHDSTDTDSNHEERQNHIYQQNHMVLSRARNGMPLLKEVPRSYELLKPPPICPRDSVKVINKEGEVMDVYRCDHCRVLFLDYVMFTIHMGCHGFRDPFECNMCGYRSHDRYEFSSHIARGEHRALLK
Chain of AIOLOS (Q96SW2 whole entry): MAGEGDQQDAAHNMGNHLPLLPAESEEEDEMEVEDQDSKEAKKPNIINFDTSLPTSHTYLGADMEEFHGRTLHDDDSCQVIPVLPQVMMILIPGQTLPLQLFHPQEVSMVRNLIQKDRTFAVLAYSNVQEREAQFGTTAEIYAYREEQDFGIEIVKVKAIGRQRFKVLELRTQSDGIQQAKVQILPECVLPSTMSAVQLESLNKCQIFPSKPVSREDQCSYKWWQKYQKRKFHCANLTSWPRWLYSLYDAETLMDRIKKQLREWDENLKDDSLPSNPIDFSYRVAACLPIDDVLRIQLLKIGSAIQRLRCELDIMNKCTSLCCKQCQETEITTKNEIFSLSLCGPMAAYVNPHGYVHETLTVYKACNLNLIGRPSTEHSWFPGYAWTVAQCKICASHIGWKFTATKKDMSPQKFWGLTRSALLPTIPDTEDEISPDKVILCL
Chain of AIOLOS (Q16531 whole entry partner): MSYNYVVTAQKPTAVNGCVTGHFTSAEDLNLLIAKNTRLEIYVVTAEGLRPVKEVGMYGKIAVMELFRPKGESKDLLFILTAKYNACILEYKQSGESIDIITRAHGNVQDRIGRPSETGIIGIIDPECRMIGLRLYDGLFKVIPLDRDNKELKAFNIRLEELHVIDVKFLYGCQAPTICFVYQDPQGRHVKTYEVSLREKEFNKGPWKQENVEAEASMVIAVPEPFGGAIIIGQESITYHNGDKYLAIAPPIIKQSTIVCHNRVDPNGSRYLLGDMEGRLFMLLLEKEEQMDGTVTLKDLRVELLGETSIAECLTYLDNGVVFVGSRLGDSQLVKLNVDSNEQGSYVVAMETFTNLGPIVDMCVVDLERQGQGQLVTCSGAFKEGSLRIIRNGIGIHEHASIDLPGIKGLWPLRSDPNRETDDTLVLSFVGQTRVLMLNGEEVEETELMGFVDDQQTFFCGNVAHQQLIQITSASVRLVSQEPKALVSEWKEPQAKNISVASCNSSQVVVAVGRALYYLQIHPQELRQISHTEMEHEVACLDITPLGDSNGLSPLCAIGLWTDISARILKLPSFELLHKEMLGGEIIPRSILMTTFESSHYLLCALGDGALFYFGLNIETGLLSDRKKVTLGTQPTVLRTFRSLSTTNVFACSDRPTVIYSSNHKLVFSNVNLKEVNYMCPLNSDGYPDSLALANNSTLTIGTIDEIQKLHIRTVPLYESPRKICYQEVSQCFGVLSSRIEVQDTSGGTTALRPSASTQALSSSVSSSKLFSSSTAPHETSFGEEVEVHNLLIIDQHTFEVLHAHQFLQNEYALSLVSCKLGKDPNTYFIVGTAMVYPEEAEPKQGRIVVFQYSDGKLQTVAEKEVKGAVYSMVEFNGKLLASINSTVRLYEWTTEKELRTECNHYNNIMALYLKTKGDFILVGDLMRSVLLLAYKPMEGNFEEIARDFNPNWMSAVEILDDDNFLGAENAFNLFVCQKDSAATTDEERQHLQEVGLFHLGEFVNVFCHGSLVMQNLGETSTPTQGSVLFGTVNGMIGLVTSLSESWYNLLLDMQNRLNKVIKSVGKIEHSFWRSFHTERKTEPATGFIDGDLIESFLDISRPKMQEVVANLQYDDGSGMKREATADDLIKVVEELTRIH
Where [8] appears, read: read-out: IRAK4 Degradation in OCI-LY10, DC50.
Where [9] appears, read: OCI-LY10, 4 hrs, read-out: IRAK4 MSD degradation in OCI-LY10 at 4 hrs: Average external-Abs DC50.
The mark [10] stands for this setting: OCI-LY10, 24 hrs, read-out: IRAK4 MSD degradation in OCI-LY10 at 24 hrs: Average external-Abs DC50.
Where [11] appears, read: Homo sapiens, SU-DHL-2, MYD88 Mutant Lines, read-out: SU-DHL2 Viability, CTG IC50.
[12] abbreviates: Homo sapiens, U2932, MYD88 WT Lines, read-out: U2932 Viability, CTG IC50.
Where [13] appears, read: Homo sapiens, OCI-LY19, MYD88 WT Lines, read-out: OCI-LY19 Viability, CTG IC50.
[14] abbreviates: Homo sapiens, OCI-Ly10, MYD88 Mutant Lines, read-out: OCI-LY10 Viability, CTG IC50.
[15] abbreviates: Homo sapiens, SU-DHL-6, MYD88 WT Lines, read-out: SU-DHL6 Viability, CTG IC50.

Chain of IKAROS (Q13422 whole entry): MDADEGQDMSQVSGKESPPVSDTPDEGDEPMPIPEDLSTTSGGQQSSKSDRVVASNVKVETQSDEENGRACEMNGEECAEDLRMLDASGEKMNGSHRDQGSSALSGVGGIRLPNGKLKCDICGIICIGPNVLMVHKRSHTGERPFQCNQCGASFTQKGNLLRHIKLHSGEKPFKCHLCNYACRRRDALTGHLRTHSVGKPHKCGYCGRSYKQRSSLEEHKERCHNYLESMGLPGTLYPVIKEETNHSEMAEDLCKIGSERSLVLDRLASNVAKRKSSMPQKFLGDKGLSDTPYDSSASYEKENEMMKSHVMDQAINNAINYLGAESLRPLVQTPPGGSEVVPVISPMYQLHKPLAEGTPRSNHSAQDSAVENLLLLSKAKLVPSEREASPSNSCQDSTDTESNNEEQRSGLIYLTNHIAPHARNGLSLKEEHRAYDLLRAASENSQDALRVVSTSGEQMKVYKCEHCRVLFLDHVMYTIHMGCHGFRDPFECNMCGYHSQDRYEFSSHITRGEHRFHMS
Chain of IKAROS (Q96SW2 whole entry): as the sequence (Q96SW2 whole entry) above
Chain of IKAROS (Q16531 whole entry partner): as the sequence (Q16531 whole entry partner) above

As to `Cn1c(=O)n([C@H]2CCC(=O)NC2=O)c2cccc(CCCOC3CCN(CC4CCC(n5cc(NC(=O)c6cnn7ccc(N8CCOCC8)nc67)c(C(F)F)n5)CC4)CC3)c21` (stereo partly drawn) [I-257, N-[3-(difluoromethyl)-1-[4-[[4-[3-[1-[(3S)-2,6-dioxo-3-piperidyl]-3-methyl-2-oxo-benzimidazol-4-yl]propoxy]-1-piperidyl]methyl]cyclohexyl]pyrazol-4-yl]-5-morpholino-pyrazolo[1,5-a]pyrimidine-3-carboxamide], the IC50 in the assay with OCI-LY10 [1] was greater than 1000 nM; in the assay with SU-DHL2 (MYD88 MUT, read-out: SU-DHL2 CTG IC50), 6900 nM; in the assay on SU-DHL2 (MYD88 Mutant Lines, read-out: SU-DHL2 Viability, CTG IC50), 6900 nM; in the assay on U2932 (MYD88 WT Lines, read-out: U2932 Viability, CTG IC50), greater than 10000 nM; in the assay on U2932 (MYD88 WT, read-out: U2932 CTG IC50) it was 10000 nM; in the assay on OCI-LY19 (MYD88 WT Lines, read-out: OCI-LY19 Viability, CTG IC50), 4700 nM. The 50% inhibitory concentration (IC50) with OCI-LY19 (MYD88 WT, read-out: OCI-LY19 CTG IC50) was 4700 nM; in the assay with IL-6, less than 1 nM; in the assay on OCI-LY10 [6] (MYD88 MUT, read-out: OCI-LY10 CTG IC50), 1200 nM; in the assay with OCI-LY10 [6] (MYD88 Mutant Lines, read-out: OCI-LY10 Viability, CTG IC50), 1200 nM; in the assay with SU-DHL6 (MYD88 WT Lines, read-out: SU-DHL6 Viability, CTG IC50) it was 5600 nM; in the assay with SU-DHL6 (MYD88 WT, read-out: SU-DHL6 CTG IC50), 5600 nM. Besides, the DC50 was 3 nM on IRAK4 [2]; less than 10 nM on IRAK4 [3]; 5 nM on IRAK4 [4] (setting [8]); 5 nM on IRAK4 [4] (read-out: IRAK4 OCI-LY10 DC50); less than 10 nM on IRAK4 [7] (setting [9]); less than 10 nM at IRAK4 [7] (setting [10]). Further, the “Regression of OCI-LY10 tumor xenograft” value in the assay on OCI-LY10 tumor xenograft is “without regression”; in the assay on OCI-LY10 tumor xenograft (listed as 1-257), “without causing regression”. Further, on IRAK4 [5], the “IRAK4 degradation in OCI-LY10 tumor xenograft” value worked out at 90%.
With `CN(CCCOCCNc1cccc2c1C(=O)N(C1CCC(=O)NC1=O)C2=O)C[C@H]1CC[C@H](n2cc(NC(=O)c3coc(-c4ccnc(NCC5CC5)c4)n3)c(C(F)F)n2)CC1` (some centres unmarked) [I-168], the IC50 was 290 nM with OCI-LY3; less than 50 nM in the assay with OCI-LY10 [1] (Homo sapiens, OCI-Ly10, 96 h); 64 nM in the assay on SU-DHL2 (Homo sapiens, SU-DHL-2, MYD88 MUT, read-out: SU-DHL2 CTG IC50); 410 nM with U2932 (Homo sapiens, U2932, MYD88 WT, read-out: U2932 CTG IC50); 430 nM in the assay on OCI-LY19 (Homo sapiens, OCI-LY19, MYD88 WT, read-out: OCI-LY19 CTG IC50); 31 nM in the assay with OCI-LY10 [6] (Homo sapiens, OCI-Ly10, MYD88 MUT, read-out: OCI-LY10 CTG IC50). In addition, the IC50 in the assay with SU-DHL6 (Homo sapiens, SU-DHL-6, MYD88 WT, read-out: SU-DHL6 CTG IC50) turned out to be 1900 nM. In addition, the DC50 at IRAK4 [2] is 78 nM; at IKAROS, 5 nM; at IRAK4 [4] (read-out: IRAK4 OCI-LY10 DC50) it was 20 nM; on AIOLOS, 5 nM; at IRAK4 [7] (setting [9]), 10 to 100 nM; at IRAK4 [7] (setting [10]), less than 10 nM.
In the case of `CC[C@@H]1CC(=O)N[C@@H]1COc1ncc(C#C[C@H]2CC[C@H](CN3CCC(OCCCc4cccc5c4n(C)c(=O)n5C4CCC(=O)NC4=O)CC3)CC2)c2cc(C(N)=O)c(OC)cc12` (some centres unmarked) [I-229], the IC50 in the assay on OCI-LY10 [1] (Homo sapiens, OCI-Ly10, 96 h) was greater than 1000 nM; with SU-DHL2 (setting [11]) it was greater than 10000 nM; in the assay on U2932 (setting [12]), greater than 10000 nM; with OCI-LY19 (setting [13]) it was greater than 10000 nM; with OCI-LY10 [6] (setting [14]) it was 3500 nM; in the assay on SU-DHL6 (setting [15]), 4100 nM. The 50% degradation concentration (DC50) at IRAK4 [4] (setting [8]) is 26 nM; at IRAK4 [7] (setting [9]), 10 to 100 nM; at IRAK4 [7] (setting [10]) it was 10 to 100 nM.
For the molecule `CN(C[C@H]1CC[C@H](n2cc3cc(NC(=O)c4cccc(C(F)(F)F)n4)c(C(C)(C)O)cc3n2)CC1)C1CCN(Cc2cccc3c2n(C)c(=O)n3C2CCC(=O)NC2=O)CC1` (some centres unmarked) [I-191], the IC50 was greater than 1000 nM in the assay with OCI-LY10 [1] (Homo sapiens, OCI-Ly10, 96 h); greater than 10000 nM in the assay with SU-DHL2 (setting [11]); greater than 10000 nM in the assay with U2932 (setting [12]); greater than 10000 nM with OCI-LY19 (setting [13]); 1 to 10 nM in the assay with IL-6 (Homo sapiens, 20 h); greater than 10000 nM with OCI-LY10 [6] (setting [14]). The IC50 in the assay with SU-DHL6 (setting [15]) was determined as 5600 nM. For the same molecule, the DC50 was less than 10 nM on IRAK4 [3], 4 nM at IRAK4 [4] (setting [8]) and less than 10 nM on IRAK4 [7] (setting [9]).
